Results on 5 compounds are retold here after patent publication US20090169603A1, “Adhesive Pharmaceutical Preparation” (NITTO DENKO CORPORATION, priority 2005, published 2009).

Data set [1] can be described thus: Measurement of viscosity at 40° C. (type E viscometer). Type of data set: physicochemical. As to the method:
Viscosity of the drug is measured using a type E viscometer while keeping the drug at a predetermined temperature. According to the invention, when the viscosity of a drug at a predetermined temperature is from 0.05 to 100,000 mPa·s, the drug is liquid at the predetermined temperature. In addition, the “logPow” is an index which expresses hydrophilic property or hydrophobicity of the drug, and is a value measured on individual drugs in accordance with the method described in “OECD GUIDELINE FOR THE TESTING OF CHEMICALS 107, Adopted by the Council on 27 Jul. 1995, Partition Coefficient (n-octanol/water), Shake Flask Method)”, and the base of logarithm of logPow is 10.
In addition, the viscosity of a drug at 40° C. is measured using a type E viscometer while heating the drug at 40° C.
5. Measurement of Viscosity at 40° C.
Viscosity of drugs at 40° C. was measured using a type E viscometer (type E viscometer mfd. By Tokyo Keiki, VISCONIC Type ED).

Data set [2] in a line: Measurement of logPow (OECD 107, n-octanol/water, shake flask method). Type of data set: physicochemical. As to the method:
In this case, the “drug which is liquid at room temperature or around room temperature” means a drug which is liquid at a temperature where the adhesive pharmaceutical preparation after its production is generally preserved, namely any temperature within a temperature range of from 1 to 40° C. Within such a temperature range, the drug has such a degree of fluidity that it can cause bleeding. Viscosity of the drug is measured using a type E viscometer while keeping the drug at a predetermined temperature. According to the invention, when the viscosity of a drug at a predetermined temperature is from 0.05 to 100,000 mPa·s, the drug is liquid at the predetermined temperature. In addition, the “logPow” is an index which expresses hydrophilic property or hydrophobicity of the drug, and is a value measured on individual drugs in accordance with the method described in “OECD GUIDELINE FOR THE TESTING OF CHEMICALS 107, Adopted by the Council on 27 Jul. 1995, Partition Coefficient (n-octanol/water), Shake Flask Method)”, and the base of logarithm of logPow is 10.
The “logPow” is obtained by a calculation after partitioning a drug into water layer and n-octanol layer and determining the drug concentration of each layer by an appropriate method, in accordance with the method described in the above-mentioned guideline. The quantitative determination of drugs is not particularly limited so long as it is a method in which its determinability was verified, for example, by verifying linearity of its calibration curve, but in general, an absorptiometry, a gas chromatography or a high performance liquid chromatography is used. […] In addition, when the drug is a dissociating substance, the logPow is measured while suppressing its dissociation in accordance with the guideline. That is, the logPow is measured using a buffer of appropriate pH as the water layer under a condition of a free acid or free base. When the drug is an acidic drug, a buffer having a pH value which is lower by a factor of 1 than the pKa value of the drug is used. When the drug is a basic drug, a buffer having a pH value which is higher by a factor of 1 than the pKa value of the drug is used.
In this connection, although the measurement range of logPow is generally set from −2 to 4 according to this guideline, the measurement range of logPow can be set to −2 to 5 by increasing the determination sensitivity by making use of high sensitivity analytical methods such as a high performance liquid chromatography.
LogPow was measured in accordance with the “OECD GUIDELINE FOR THE TESTING OF CHEMICALS 107, Adopted by the Council on 27th Jul. 1995, Partition Coefficient (n-Octanol/water), Shake Flask Method)”. Water layers, determination methods and results of the LogPow measurement at the time of the measurement of LogPow are shown in Table 3.

[3] abbreviates: water layer pH 10 buffer, HPLC method.

Read-outs that look alike come from different tables or passages of the source.

Usually logP stands for a log measure of how a compound divides between an organic and an aqueous phase. Higher therefore signals a more lipophilic compound. Regarding `CC=CC(=O)N(CC)c1ccccc1C` (mixture of isomers) [Crotamiton, crotamiton], in data set [1], the Viscosity was 16 mPa·s. The logP in data set [2] (n-octanol/water, water layer distilled water, HPLC method) amounted to 3.1. Also, the LogPow entry in data set [2] (water layer distilled water, HPLC method) is “Crotamiton (3.1)”; in data set [2] (water layer distilled water, HPLC method, listed as crotamiton) it was 3.1.
One may read the logD as lipophilicity at a set pH, counting ionised and neutral species. Low readings indicate lower lipophilicity, high ones higher lipophilicity. As for `CCOCCn1c(N2CCCN(C)CC2)nc2ccccc21` [Emedastine free base, emedastine free base], the Viscosity in data set [1] turned out to be 280 mPa·s. This compound also came in with a logD in data set [2] (n-octanol/water, water layer pH 10 buffer, HPLC method) of 2.4. For the same compound, the LogPow result in data set [2] (setting [3]) is recorded as “base (2.4)”; in data set [2] (water layer pH 10 buffer, HPLC method, listed as emedastine free base) it was 2.4.
For `COc1ccc(CCN(C)CCCC(C#N)(c2cc(OC)c(OC)c(OC)c2)C(C)C)cc1OC` (stereo not shown) [Gallopamil free base, gallopamil free base], the Viscosity was 4500 mPa·s in data set [1] and 4,500 mPa·s in data set [1] (listed as gallopamil). For the same compound, the LogPow in data set [2] (setting [3]) was found to be 4.8.
For the compound `OCC(O)CO` [Glycerol], the LogPow in data set [2] (water layer distilled water, titration method) is listed as −1.1.
In data set [1], `CN(C/C=C/C#CC(C)(C)C)Cc1cccc2ccccc12` [Terbinafine free base] returned a Viscosity of 280 mPa·s. Also, the logD in data set [2] (n-octanol/water, water layer pH 9.2 buffer, HPLC method) is greater than 5. Also, the LogPow result is on record as “base (>5.0)” in data set [2] (water layer pH 9.2 buffer, HPLC method) and greater than 5.0 in data set [2] (water layer pH 9.2 buffer, HPLC method, listed as terbinafine).
